Assay results from patent US20110092703A1, “P2X4 RECEPTOR ANTAGONIST” (NIPPON CHEMIPHAR CO., LTD., priority 2007, published 2011).
Counter-ions that a name gives are not always drawn.

Key:
P2X4 receptor [1] = biological target: T1, P2X4 receptor (Homo sapiens, UniProt Q99571); test: P2X4 antagonism study by measurement of intracellular Ca2+ influx response; assay type: cell-based; design: expressed in transfected cells; conditions: 1321N1 cells stably expressing human P2X4; 1 μM ATP; compound 15 min before ATP; Fura-2 F340/F380; read-out: Inhibitory activity: IC50
T1 sequence (Q99571 1-388): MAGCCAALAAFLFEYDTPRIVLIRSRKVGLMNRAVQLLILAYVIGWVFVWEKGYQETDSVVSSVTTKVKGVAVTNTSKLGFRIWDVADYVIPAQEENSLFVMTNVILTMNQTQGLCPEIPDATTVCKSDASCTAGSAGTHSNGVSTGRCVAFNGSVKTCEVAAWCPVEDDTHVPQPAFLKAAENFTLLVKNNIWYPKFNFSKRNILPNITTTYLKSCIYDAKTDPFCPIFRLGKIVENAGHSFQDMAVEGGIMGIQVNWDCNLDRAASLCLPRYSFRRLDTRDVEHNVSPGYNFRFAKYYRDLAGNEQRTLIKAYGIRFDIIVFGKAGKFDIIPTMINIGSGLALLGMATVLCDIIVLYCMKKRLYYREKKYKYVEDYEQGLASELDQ
Description: (§1) 1321N1 cells stably expressing human P2X4 receptors were adopted for calcium influx assay. P2X4/1321N1 cells were plated in 96-well assay plate and cultured 24 hours in an atmosphere of 5% CO2 at 37° C. Fura-2 AM calcium indicator in assay buffer (150 mM NaCl, 5 mM KCl, 1.8 mM CaCl2, 1.2 mM MgCl2, 10 mM D-glucose and 25 mM HEPES, pH 7.4) was loaded onto cells for 1 hour at room temperature and the fluorescence was detected by FLUOstar Optima micro plate reader (BMG labtech). The cells were alternatively illuminated with two excitations wavelengths (340 nm and 380 nm) via xenon lamp and the emitted fluorescence was measured at 510 nm. The fluorescence changes after the treatment of 1 μM ATP were monitored and determined the fluorescence ratio (F340/F380) as the index of intracellular calcium change. Tested compound were treated to cells 15 min before the addition of ATP and the inhibition activity of compounds was calculated by comparing the Ca^2+ response with control in the absence of tested compound.
as §1, with “pH7.4)” for “pH 7.4)”

[2] = biological target: T2, human Serotonin transporter (Homo sapiens, UniProt P31645); test: [3H]paroxetine binding to serotonin transporter; conditions: read-out: Percent inhibition (10^−7 M)
T2 construct: expressed in transfected cells; cell membranes
Description: After incubation for 60 min at 25° C., the reaction was terminated by rapid filtration through GF/B glass fiber filter and rinsed with ice-cold incubation buffer. The retained radioactivity on filter was measured by a liquid scintillation counter. Nonspecific binding was defined with 10 μM imipramine and subtracted from total binding to determine specific binding. Inhibition activities of tested compounds were determined as a percent inhibition of the specific binding.

P2X4 receptor [3] = biological target: T1, P2X4 receptor; conditions: disclosed in WO 2007/049825 / Abstract P3-N-114; cited from earlier work
serotonin reuptake = biological target: T3, serotonin reuptake (Rattus norvegicus, UniProt P31652); test: Serotonin reuptake inhibition assay ([3H]serotonin, synaptosomes prepared from the rat brain); assay type: biochemical; conditions: 10^−7 M compound, 15 min at 37° C., read-out: Percent inhibition (10^−7 M)
T3 construct: synaptosomes prepared from the rat brain; from tissue; host or cells: rat brain synaptosomes
T3 sequence (P31652 whole entry): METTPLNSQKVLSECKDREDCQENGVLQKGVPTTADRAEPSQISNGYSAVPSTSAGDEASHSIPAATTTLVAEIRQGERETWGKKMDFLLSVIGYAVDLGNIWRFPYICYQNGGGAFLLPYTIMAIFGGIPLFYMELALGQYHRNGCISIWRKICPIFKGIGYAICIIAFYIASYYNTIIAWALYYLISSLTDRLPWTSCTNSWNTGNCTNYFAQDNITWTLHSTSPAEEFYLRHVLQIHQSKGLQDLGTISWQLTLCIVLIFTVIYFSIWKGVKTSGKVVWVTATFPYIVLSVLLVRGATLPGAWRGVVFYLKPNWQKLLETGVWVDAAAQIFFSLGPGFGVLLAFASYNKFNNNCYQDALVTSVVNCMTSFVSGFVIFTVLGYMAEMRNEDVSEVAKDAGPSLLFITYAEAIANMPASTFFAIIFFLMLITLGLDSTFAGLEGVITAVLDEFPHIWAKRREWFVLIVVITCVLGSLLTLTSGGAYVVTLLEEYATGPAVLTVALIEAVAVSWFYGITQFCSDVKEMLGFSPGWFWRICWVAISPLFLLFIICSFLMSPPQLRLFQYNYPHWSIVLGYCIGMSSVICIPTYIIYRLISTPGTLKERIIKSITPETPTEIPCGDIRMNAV
Description: 100 μg of the synaptosomes prepared from the rat brain were incubated for 15 min at 37° C. with 0.1 μCi [^3H]serotonin in the presence of tested compound in a buffer containing 106.2 mM NaCl, 4.5 mM KCl, 2.25 mM MgSO4, 1.08 mM NaH2PO4, 22.5 mM NaHCO3, 9.9 mM glucose, 9 μM EGTA and 45 μM ascorbic acid (pH 7.4). Basal control activity was determined by incubating the same mixture for 15 min at 4′C in the presence of 10 μM imipramine. Following incubation, the samples were filtered rapidly under vacuum through GF/B glass fiber filters and rinsed twice with ice-cold incubation buffer using a cell harvester. The retained radioactivity on filters was measured in TopCount scintillation counter. The results were expressed as a percent inhibition of the specific binding in the absence of tested compound.
100 μg of the synaptosomes prepared from the rat brain were incubated for 15 min at 37° C. with 0.1 μCi [^3H]serotonin in the presence of tested compound in a buffer containing 106.2 mM NaCl, 4.5 mM KCl, 2.25 mM MgSO4, 1.08 mm NaH2PO4, 22.5 mM NaHCO3, 9.9 mM glucose, 9 μM EGTA and 45 μM ascorbic acid (pH 7.4). Basal control activity was determined by incubating the same mixture for 15 min at 4° C. in the presence of 10 μM imipramine. […] The retained radioactivity on filters was measured in TopCount scintillation counter. […]

T2 sequence (P31645 whole entry): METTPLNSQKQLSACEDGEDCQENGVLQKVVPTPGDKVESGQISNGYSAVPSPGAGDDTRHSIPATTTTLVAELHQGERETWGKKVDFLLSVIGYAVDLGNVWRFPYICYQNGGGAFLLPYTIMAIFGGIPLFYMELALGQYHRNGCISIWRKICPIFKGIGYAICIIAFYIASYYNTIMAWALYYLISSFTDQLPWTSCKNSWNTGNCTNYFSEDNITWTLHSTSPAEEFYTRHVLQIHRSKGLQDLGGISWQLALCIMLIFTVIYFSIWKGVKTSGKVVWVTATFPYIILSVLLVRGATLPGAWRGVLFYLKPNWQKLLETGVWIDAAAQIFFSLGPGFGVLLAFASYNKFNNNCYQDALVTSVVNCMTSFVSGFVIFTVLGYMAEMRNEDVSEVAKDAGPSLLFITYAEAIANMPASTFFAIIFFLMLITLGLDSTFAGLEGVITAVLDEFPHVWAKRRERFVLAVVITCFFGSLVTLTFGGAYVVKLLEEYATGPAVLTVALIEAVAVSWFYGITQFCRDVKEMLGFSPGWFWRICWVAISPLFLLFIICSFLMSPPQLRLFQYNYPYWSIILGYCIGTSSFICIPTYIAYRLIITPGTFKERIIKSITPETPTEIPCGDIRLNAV

Compound: CC(C)c1cccc(N2CCNCC2COc2ccc(OC(C)(C)C)cc2)c1 (centres unmarked) [Example 13, 2-(4-tert-Butoxyphenoxymethyl)-1-(3-isopropylphenyl)piperazine hydrochloride]
- IC50 (P2X4 receptor [1]): 2.9 µM

Compound: Clc1ccc(OCC2CNCCN2c2ccc3c(c2)CCC3)cc1 (centres unmarked) [Example 10, 2-(4-Chlorophenoxymethyl)-1-indan-5-yl-piperazine hydrochloride]
- inhibition at 0.1 µM [2]: 44%
- IC50 (P2X4 receptor [1]): 4.7 µM

Compound: CC(C)c1cccc(N2CCNCC2COc2ccc(Cl)cc2)c1 (centres unmarked) [Example 3, 2-(4-Chlorophenoxymethyl)-1-(3-isopropylphenyl)piperazine hydrochloride]
- inhibition at 0.1 µM [2]: 13%
- IC50 (P2X4 receptor [1]): 8.3 µM

Compound: CC(C)c1ccc(N2CCNCC2COc2ccc3c(c2)OCO3)cc1 (centres unmarked) [Example 11, 1-(4-Isopropylphenyl)-2-(3,4-methylenedioxyphenoxymethyl)piperazine hydrochloride]
- IC50 (P2X4 receptor [1]): 7.4 µM

Compound: CC(C)c1ccc(N2CCNCC2COc2ccc(S(N)(=O)=O)cc2)cc1 (centres unmarked) [Example 15, 1-(4-Isopropylphenyl)-2-(4-sulfamoylphenoxymethyl)piperazine hydrochloride]
- IC50 (P2X4 receptor [1]): 6.3 µM

Compound: Cc1cccc(C)c1N1CCNCC1COc1ccc(Cl)cc1.Cl (centres unmarked)
- melting point: 97 to 100 °C

Compound: Fc1ccc([C@@H]2CCNC[C@H]2COc2ccc3c(c2)OCO3)cc1 [Paroxetine]
- P2X4 receptor antagonism (in words) (P2X4 receptor [3]): shows P2X4 receptor antagonism

Compound: CCCc1ccc(N2CCNCC2COc2ccc(Cl)cc2)cc1 (centres unmarked) [Example 2, 2-(4-Chlorophenoxymethyl)-1-(4-propylphenyl)piperazine hydrochloride]
- inhibition at 0.1 µM [2]: 31%
- IC50 (P2X4 receptor [1]): 7.6 µM

Compound: CN(C)CCCN1c2ccccc2CCc2ccccc21 [imipramine]
- P2X4 receptor antagonism (in words) (P2X4 receptor [3]): shows P2X4 receptor antagonism

Compound: CC(C)c1ccc(N2CCNCC2CSc2ccc(Cl)cc2)cc1 (centres unmarked) [Example 17, 2-(4-Chlorophenylsulfanylmethyl)-1-(4-isopropylphenyl)piperazine hydrochloride]
- inhibition at 0.1 µM (serotonin reuptake): 4%
- IC50 (P2X4 receptor [1]): 8.1 µM

Compound: CC(C)c1ccc(N2CCNCC2COc2ccc(Cl)cc2)cc1 (centres unmarked) [Example 1, 2-(4-Chlorophenoxymethyl)-1-(4-isopropylphenyl)piperazine hydrochloride]
- inhibition at 0.1 µM [2]: 17%
- IC50 (P2X4 receptor [1]): 6.9 µM

Compound: CC(C)NS(=O)(=O)c1ccc(OCC2CNCCN2c2ccc(C(C)C)cc2)cc1 (centres unmarked) [Example 16, 1-(4-Isopropylphenyl)-2-[4-(isopropylsulfamoyl)phenoxymethyl]piperazine hydrochloride]
- inhibition at 0.1 µM (serotonin reuptake): 11%
- IC50 (P2X4 receptor [1]): 2.8 µM

Compound: Cc1cc(C)c(N2CCNCC2COc2ccc(Cl)cc2)c(C)c1 (centres unmarked) [Example 7, 2-(4-Chlorophenoxymethyl)-1-(2,4,6-trimethylphenyl)piperazine hydrochloride]
- inhibition at 0.1 µM [2]: 26%
- IC50 (P2X4 receptor [1]): 3.1 µM
